{"source": "ChEMBL document CHEMBL4396905", "about": "“Design, synthesis and in vitro evaluation of 6-amide-2-aryl benzoxazole/benzimidazole derivatives against tumor cells by inhibiting VEGFR-2 kinase” (Eur J Med Chem, 2019)", "key": {"HepG2 [1]": {"tested_on": "HepG2", "test": "Antiproliferative activity against human HepG2 cells expressing VEGFR2 assessed as reduction in cell growth incubated for 48 hrs by MTT assay", "assay_type": "functional, cell-based", "conditions": "HepG2, 48 h"}, "HepG2 [2]": {"tested_on": "HepG2", "test": "Induction of apoptosis in human HepG2 cells assessed as necrotic cells at 10 nM incubated for 24 hrs by dUTP-FITC/PI staining based flow cytometry (reference value: 10.2%)", "assay_type": "functional"}, "HepG2 [3]": {"tested_on": "HepG2", "test": "Cell cycle arrest in human HepG2 cells assessed as accumulation at S phase at 10 nM incuabted for 24 hrs by PI staining based flow cytometry (reference value: 9.8%)", "assay_type": "functional"}, "HUVEC [4]": {"tested_on": "HUVEC", "test": "Cell cycle arrest in human HUVEC cells assessed as accumulation at G0/G1 phase incuabted for 24 hrs by PI staining based flow cytometry", "assay_type": "functional"}, "HUVEC [5]": {"tested_on": "HUVEC", "test": "Cell cycle arrest in human HUVEC cells assessed as accumulation at S phase at 1 nM incuabted for 24 hrs by PI staining based flow cytometry (reference value: 10.4%)", "assay_type": "functional"}, "HUVEC [6]": {"tested_on": "HUVEC", "test": "Cell cycle arrest in human HUVEC cells assessed as accumulation at G2/M phase at 1 nM incuabted for 24 hrs by PI staining based flow cytometry (reference value: 46.4%)", "assay_type": "functional"}, "HUVEC [7]": {"tested_on": "HUVEC", "test": "Induction of apoptosis in human HUVEC cells assessed as apoptotic cells at 10 nM incubated for 24 hrs by dUTP-FITC/PI staining based flow cytometry (reference value: 4.9%)", "assay_type": "functional"}, "[8]": {"molecular_target": "Epidermal growth factor receptor (Homo sapiens) (UniProt P00533)", "sequence (P00533 whole entry)": "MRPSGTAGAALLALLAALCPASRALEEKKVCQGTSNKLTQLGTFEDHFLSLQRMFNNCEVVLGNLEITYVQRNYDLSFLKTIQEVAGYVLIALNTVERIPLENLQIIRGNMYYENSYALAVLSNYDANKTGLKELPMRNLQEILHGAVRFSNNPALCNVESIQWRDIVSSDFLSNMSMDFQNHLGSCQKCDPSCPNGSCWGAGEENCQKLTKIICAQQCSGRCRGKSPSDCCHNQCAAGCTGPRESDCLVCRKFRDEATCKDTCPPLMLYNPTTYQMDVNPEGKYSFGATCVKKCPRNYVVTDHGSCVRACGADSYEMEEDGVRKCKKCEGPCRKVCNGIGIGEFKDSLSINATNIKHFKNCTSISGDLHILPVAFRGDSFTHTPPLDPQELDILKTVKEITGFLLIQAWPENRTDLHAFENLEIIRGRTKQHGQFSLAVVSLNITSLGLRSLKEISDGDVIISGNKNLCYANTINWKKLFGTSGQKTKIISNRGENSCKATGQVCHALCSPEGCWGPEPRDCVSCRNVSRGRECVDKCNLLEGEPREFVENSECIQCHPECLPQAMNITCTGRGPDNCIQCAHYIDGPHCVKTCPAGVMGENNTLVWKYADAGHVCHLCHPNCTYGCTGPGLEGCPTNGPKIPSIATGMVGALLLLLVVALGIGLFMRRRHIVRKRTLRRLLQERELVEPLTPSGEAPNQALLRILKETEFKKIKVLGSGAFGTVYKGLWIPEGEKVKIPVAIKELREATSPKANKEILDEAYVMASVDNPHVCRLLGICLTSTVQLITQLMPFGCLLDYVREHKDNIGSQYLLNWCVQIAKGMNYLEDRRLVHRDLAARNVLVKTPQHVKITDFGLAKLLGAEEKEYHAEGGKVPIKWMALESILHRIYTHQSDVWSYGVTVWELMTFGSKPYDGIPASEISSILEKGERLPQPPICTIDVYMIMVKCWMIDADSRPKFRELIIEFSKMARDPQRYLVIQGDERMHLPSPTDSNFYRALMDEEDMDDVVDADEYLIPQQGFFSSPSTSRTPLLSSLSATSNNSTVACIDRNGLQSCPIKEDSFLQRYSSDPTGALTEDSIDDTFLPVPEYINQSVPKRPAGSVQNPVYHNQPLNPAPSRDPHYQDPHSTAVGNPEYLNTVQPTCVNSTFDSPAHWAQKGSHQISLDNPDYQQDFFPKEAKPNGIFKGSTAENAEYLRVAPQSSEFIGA", "test": "Inhibition of EGFR (unknown origin) using Poly (Glu, Tyr) 4:1 as substrate at 1 uM preincubated with substrate followed by enzyme challenge for 1 hr by ELISA relative to control"}, "HUVEC [9]": {"tested_on": "HUVEC", "test": "Cell cycle arrest in human HUVEC cells assessed as accumulation at S phase at 10 nM incuabted for 24 hrs by PI staining based flow cytometry (reference value: 10.4%)", "assay_type": "functional"}, "HepG2 [10]": {"tested_on": "HepG2", "test": "Cell cycle arrest in human HepG2 cells assessed as accumulation at G0/G1 phase at 1 nM incuabted for 24 hrs by PI staining based flow cytometry (reference value: 47.9%)", "assay_type": "functional"}, "HepG2 [11]": {"tested_on": "HepG2", "test": "Induction of apoptosis in human HepG2 cells assessed as apoptotic cells at 1 nM incubated for 24 hrs by dUTP-FITC/PI staining based flow cytometry (reference value: 3.3%)", "assay_type": "functional"}, "MDA-MB-231": {"tested_on": "MDA-MB-231", "test": "Antiproliferative activity against human MDA-MB-231 cells expressing EGFR assessed as reduction in cell growth incubated for 48 hrs by MTT assay", "assay_type": "functional, cell-based", "conditions": "MDA-MB-231, 48 h"}, "HUVEC [12]": {"tested_on": "HUVEC", "test": "Cell cycle arrest in human HUVEC cells assessed as accumulation at G2/M phase at 10 nM incuabted for 24 hrs by PI staining based flow cytometry (reference value: 46.4%)", "assay_type": "functional"}, "[13]": {"molecular_target": "T1, Vascular endothelial growth factor receptor 2 (Homo sapiens, UniProt P35968)", "T1 sequence (P35968 whole entry)": "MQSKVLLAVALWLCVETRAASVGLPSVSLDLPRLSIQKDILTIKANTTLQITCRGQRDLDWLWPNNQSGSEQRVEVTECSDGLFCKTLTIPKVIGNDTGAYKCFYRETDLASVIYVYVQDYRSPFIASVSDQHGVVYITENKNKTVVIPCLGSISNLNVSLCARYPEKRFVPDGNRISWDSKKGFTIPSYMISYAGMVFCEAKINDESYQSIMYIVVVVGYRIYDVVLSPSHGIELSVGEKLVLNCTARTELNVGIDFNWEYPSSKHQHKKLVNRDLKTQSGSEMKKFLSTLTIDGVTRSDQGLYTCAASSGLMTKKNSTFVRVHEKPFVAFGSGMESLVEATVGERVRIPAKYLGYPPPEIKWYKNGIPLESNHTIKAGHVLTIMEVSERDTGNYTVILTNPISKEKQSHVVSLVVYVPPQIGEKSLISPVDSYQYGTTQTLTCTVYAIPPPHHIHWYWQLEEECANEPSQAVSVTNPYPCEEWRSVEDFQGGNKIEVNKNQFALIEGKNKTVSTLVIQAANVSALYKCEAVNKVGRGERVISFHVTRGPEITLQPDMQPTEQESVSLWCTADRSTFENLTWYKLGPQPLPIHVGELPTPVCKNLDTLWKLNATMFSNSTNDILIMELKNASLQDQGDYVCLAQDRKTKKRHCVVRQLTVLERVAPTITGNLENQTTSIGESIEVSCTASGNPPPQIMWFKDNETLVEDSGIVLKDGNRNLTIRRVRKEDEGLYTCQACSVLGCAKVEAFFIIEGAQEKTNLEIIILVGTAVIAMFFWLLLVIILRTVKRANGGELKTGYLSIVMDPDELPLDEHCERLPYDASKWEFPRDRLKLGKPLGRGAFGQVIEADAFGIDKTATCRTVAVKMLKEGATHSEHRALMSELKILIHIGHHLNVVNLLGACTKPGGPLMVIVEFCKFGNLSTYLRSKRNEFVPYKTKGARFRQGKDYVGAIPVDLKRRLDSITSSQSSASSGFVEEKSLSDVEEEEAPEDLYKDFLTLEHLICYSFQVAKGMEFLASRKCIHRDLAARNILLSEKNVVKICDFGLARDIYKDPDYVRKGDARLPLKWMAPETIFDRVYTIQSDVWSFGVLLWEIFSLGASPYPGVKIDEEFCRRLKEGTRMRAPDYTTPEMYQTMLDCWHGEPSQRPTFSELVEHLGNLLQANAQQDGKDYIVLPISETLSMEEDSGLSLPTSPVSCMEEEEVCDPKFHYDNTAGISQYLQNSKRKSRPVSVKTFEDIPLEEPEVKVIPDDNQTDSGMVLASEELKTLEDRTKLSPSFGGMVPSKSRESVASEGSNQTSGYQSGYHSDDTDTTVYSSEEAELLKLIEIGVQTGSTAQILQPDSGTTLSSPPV", "conditions": "at 1 µM", "description": "Inhibition of VEGFR2 (unknown origin) using Poly (Glu, Tyr) 4:1 as substrate at 1 uM preincubated with substrate followed by enzyme challenge for 1 hr by ELISA relative to control"}, "HepG2 [14]": {"tested_on": "HepG2", "test": "Induction of apoptosis in human HepG2 cells assessed as apoptotic cells at 10 nM incubated for 24 hrs by dUTP-FITC/PI staining based flow cytometry (reference value: 3.3%)", "assay_type": "functional"}, "HepG2 [15]": {"tested_on": "HepG2", "test": "Cell cycle arrest in human HepG2 cells assessed as accumulation at G2/M phase at 10 nM incuabted for 24 hrs by PI staining based flow cytometry (reference value: 42.3%)", "assay_type": "functional"}, "HUVEC [16]": {"tested_on": "HUVEC", "test": "Induction of apoptosis in human HUVEC cells assessed as necrotic cells at 1 nM incubated for 24 hrs by dUTP-FITC/PI staining based flow cytometry (reference value: 6.9%)", "assay_type": "functional"}, "Chorioallantoic membrane [17]": {"tested_on": "Chorioallantoic membrane", "test": "Antiangiogenic activity in chicken chorioallantoic membrane assessed as reduction in number of blood vessels measured after 48 hrs by CAM assay", "assay_type": "functional, cell membranes", "conditions": "Gallus gallus"}, "A549": {"tested_on": "A549", "test": "Antiproliferative activity against human A549 cells expressing EGFR assessed as reduction in cell growth incubated for 48 hrs by MTT assay", "assay_type": "functional, cell-based", "conditions": "A549, 48 h"}, "HUVEC [18]": {"tested_on": "HUVEC", "test": "Induction of apoptosis in human HUVEC cells assessed as apoptotic cells at 1 nM incubated for 24 hrs by dUTP-FITC/PI staining based flow cytometry (reference value: 4.9%)", "assay_type": "functional"}, "Chorioallantoic membrane [19]": {"tested_on": "Chorioallantoic membrane", "test": "Antiangiogenic activity in chicken chorioallantoic membrane assessed as reduction in number of blood vessels at 0.1 nM per egg measured after 48 hrs by CAM assay relative to control", "assay_type": "functional, cell membranes", "conditions": "Gallus gallus"}, "HepG2 [20]": {"tested_on": "HepG2", "test": "Cell cycle arrest in human HepG2 cells assessed as accumulation at G2/M phase at 1 nM incuabted for 24 hrs by PI staining based flow cytometry (reference value: 42.3%)", "assay_type": "functional"}, "HepG2 [21]": {"tested_on": "HepG2", "test": "Cell cycle arrest in human HepG2 cells assessed as accumulation at G0/G1 phase incuabted for 24 hrs by PI staining based flow cytometry", "assay_type": "functional"}, "[22]": {"molecular_target": "T1, Vascular endothelial growth factor receptor 2", "test": "Inhibition of VEGFR2 in human HUVEC cells assessed as reduction in phosphorylation of VEGFR2 at 2 to 4 uM incubated for 24 hrs by Western blot analysis", "assay_type": "cell-based"}, "Chorioallantoic membrane [23]": {"tested_on": "Chorioallantoic membrane", "test": "Antiangiogenic activity in chicken chorioallantoic membrane assessed as reduction in number of blood vessels at 1 nM per egg measured after 48 hrs by CAM assay relative to control", "assay_type": "functional, cell membranes", "conditions": "Gallus gallus"}, "HepG2 [24]": {"tested_on": "HepG2", "test": "Cell cycle arrest in human HepG2 cells assessed as accumulation at G0/G1 phase at 10 nM incuabted for 24 hrs by PI staining based flow cytometry (reference value: 47.9%)", "assay_type": "functional"}, "[25]": {"molecular_target": "Platelet-derived growth factor receptor alpha (Homo sapiens) (UniProt P16234)", "sequence (P16234 whole entry)": "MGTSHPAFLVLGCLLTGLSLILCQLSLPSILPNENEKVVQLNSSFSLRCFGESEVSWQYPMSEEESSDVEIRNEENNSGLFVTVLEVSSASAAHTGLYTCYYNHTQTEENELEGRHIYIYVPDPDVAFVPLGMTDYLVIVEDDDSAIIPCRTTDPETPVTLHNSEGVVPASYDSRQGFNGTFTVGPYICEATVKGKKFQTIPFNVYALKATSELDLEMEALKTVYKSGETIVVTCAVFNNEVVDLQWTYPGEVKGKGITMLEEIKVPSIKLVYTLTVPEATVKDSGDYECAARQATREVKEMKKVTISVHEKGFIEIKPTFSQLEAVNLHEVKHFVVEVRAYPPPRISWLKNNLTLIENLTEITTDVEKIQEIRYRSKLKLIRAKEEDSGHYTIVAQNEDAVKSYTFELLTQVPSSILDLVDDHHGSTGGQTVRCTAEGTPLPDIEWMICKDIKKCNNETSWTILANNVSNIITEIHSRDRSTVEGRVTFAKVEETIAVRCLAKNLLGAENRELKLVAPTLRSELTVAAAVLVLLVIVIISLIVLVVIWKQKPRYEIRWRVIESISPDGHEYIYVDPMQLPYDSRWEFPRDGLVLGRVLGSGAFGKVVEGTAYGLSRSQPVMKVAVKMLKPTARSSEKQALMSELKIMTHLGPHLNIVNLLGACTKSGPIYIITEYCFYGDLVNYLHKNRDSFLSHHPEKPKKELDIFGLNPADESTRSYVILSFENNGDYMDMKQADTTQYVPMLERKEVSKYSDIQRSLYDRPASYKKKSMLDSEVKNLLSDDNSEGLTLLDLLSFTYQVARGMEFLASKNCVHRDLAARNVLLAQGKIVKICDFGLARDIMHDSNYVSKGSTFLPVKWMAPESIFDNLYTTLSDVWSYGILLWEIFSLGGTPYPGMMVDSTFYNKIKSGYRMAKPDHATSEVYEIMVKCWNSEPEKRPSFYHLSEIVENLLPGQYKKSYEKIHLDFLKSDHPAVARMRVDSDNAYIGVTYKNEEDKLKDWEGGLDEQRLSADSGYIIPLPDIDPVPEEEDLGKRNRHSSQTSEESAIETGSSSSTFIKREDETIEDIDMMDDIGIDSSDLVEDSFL", "test": "Inhibition of PDGFRalpha (unknown origin) at 1 uM"}, "HUVEC [26]": {"tested_on": "HUVEC", "test": "Induction of apoptosis in human HUVEC cells assessed as necrotic cells at 10 nM incubated for 24 hrs by dUTP-FITC/PI staining based flow cytometry (reference value: 6.9%)", "assay_type": "functional"}, "[27]": {"molecular_target": "T1, Vascular endothelial growth factor receptor 2", "test": "Inhibition of VEGFR2 (unknown origin) using Poly (Glu, Tyr) 4:1 as substrate preincubated with substrate followed by enzyme challenge for 1 hr by ELISA"}, "[28]": {"molecular_target": "Vascular endothelial growth factor receptor 1 (Homo sapiens) (UniProt P17948)", "test": "Inhibition of FLT1 (unknown origin) at 1 uM"}, "[29]": {"molecular_target": "Vascular endothelial growth factor receptor 3 (Homo sapiens) (UniProt P35916)", "test": "Inhibition of FLT4 (unknown origin) 1 uM"}, "HUVEC [30]": {"tested_on": "HUVEC", "test": "Antiproliferative activity against human HUVEC cells expressing VEGFR2 assessed as reduction in cell growth incubated for 48 hrs by MTT assay", "assay_type": "functional, cell-based"}, "[31]": {"molecular_target": "Hepatocyte growth factor receptor (Homo sapiens) (UniProt P08581)", "sequence (P08581 whole entry)": "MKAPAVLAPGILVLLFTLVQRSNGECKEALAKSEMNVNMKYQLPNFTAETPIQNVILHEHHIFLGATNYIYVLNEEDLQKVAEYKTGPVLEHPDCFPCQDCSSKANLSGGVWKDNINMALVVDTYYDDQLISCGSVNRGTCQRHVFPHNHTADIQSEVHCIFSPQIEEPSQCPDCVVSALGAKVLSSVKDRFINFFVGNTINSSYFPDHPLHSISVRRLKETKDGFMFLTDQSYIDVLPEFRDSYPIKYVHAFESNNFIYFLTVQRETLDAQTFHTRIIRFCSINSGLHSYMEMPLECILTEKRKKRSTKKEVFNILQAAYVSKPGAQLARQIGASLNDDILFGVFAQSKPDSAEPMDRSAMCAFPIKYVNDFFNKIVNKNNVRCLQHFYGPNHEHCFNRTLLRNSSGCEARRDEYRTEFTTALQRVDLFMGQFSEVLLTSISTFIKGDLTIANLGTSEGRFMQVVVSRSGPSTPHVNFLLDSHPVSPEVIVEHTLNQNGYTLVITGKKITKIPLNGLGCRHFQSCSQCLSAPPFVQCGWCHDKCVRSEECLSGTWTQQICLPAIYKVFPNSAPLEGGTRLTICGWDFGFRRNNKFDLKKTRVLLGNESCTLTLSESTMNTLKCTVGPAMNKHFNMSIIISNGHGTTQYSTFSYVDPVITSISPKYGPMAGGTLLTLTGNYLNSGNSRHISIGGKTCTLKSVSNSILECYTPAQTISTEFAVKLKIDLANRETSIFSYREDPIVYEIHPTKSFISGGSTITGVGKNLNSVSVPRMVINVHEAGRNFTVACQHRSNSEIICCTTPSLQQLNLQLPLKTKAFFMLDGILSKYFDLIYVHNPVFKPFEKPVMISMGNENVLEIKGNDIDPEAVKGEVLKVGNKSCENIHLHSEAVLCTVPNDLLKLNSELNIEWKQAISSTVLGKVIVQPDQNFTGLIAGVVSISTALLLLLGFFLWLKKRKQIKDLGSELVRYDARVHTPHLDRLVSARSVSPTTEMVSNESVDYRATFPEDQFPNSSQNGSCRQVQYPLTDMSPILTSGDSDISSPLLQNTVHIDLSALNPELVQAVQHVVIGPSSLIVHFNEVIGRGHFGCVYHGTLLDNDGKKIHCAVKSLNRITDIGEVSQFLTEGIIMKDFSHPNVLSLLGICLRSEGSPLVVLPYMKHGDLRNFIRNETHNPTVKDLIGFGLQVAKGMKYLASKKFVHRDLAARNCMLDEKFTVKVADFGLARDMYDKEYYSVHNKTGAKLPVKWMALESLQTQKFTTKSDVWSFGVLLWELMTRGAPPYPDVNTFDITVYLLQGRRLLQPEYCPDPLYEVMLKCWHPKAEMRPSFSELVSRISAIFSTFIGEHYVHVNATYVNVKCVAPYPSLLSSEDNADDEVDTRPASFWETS", "test": "Inhibition of MET (unknown origin) at 1 uM"}, "HUVEC [32]": {"tested_on": "HUVEC", "test": "Cell cycle arrest in human HUVEC cells assessed as accumulation at G0/G1 phase at 10 nM incuabted for 24 hrs by PI staining based flow cytometry (reference value: 43.2%)", "assay_type": "functional"}, "[33]": {"test": "Cytotoxicity against human LO2 cells assessed as reduction in cell viability at 10 uM relative to control", "assay_type": "cell-based, L02", "conditions": "read-out: INH"}, "HUVEC [34]": {"tested_on": "HUVEC", "test": "Cell cycle arrest in human HUVEC cells assessed as accumulation at G0/G1 phase at 1 nM incuabted for 24 hrs by PI staining based flow cytometry (reference value: 43.2%)", "assay_type": "functional"}, "Chorioallantoic membrane [35]": {"tested_on": "Chorioallantoic membrane", "test": "Antiangiogenic activity in chicken chorioallantoic membrane assessed as reduction in number of blood vessels at 10 nM per egg measured after 48 hrs by CAM assay relative to control", "assay_type": "functional, cell membranes", "conditions": "Gallus gallus"}, "[36]": {"molecular_target": "Platelet-derived growth factor receptor beta (Homo sapiens) (UniProt P09619)", "test": "Inhibition of PDGFRbeta (unknown origin) at 1 uM"}, "HepG2 [37]": {"tested_on": "HepG2", "test": "Cell cycle arrest in human HepG2 cells assessed as accumulation at S phase at 1 nM incuabted for 24 hrs by PI staining based flow cytometry (reference value: 9.8%)", "assay_type": "functional"}, "HepG2 [38]": {"tested_on": "HepG2", "test": "Induction of apoptosis in human HepG2 cells assessed as necrotic cells at 1 nM incubated for 24 hrs by dUTP-FITC/PI staining based flow cytometry (reference value: 10.2%)", "assay_type": "functional"}}, "note": "The source made the active and inactive calls. No cut-off for these calls is given here.", "data": [{"compound": "COc1ccc(CC(=O)Nc2ccc3[nH]c(-c4ccc(Cl)cc4)nc3c2)cc1", "values": [{"measurement": "IC50", "setting": "HepG2 [1]", "value": 2.57, "unit": "µM"}, {"measurement": "Activity", "setting": "HepG2 [2]", "value": 5.9, "unit": "%"}, {"measurement": "Activity", "setting": "HepG2 [3]", "value": 6.7, "unit": "%"}, {"measurement": "Activity", "setting": "HUVEC [4]", "value": "Dose-dependent effect"}, {"measurement": "Activity", "setting": "HUVEC [5]", "value": 8.9, "unit": "%"}, {"measurement": "Activity", "setting": "HUVEC [6]", "value": 31.8, "unit": "%"}, {"measurement": "Activity", "setting": "HUVEC [7]", "value": 34.3, "unit": "%"}, {"measurement": "inhibition", "setting": "[8]", "value": 58.3, "unit": "%"}, {"measurement": "Activity", "setting": "HUVEC [9]", "value": 7.3, "unit": "%"}, {"measurement": "Activity", "setting": "HepG2 [10]", "value": 55.7, "unit": "%"}, {"measurement": "Activity", "setting": "HepG2 [11]", "value": 13.7, "unit": "%"}, {"measurement": "IC50", "setting": "MDA-MB-231", "value": 57.3, "unit": "µM"}, {"measurement": "Activity", "setting": "HUVEC [12]", "value": 21.3, "unit": "%"}, {"measurement": "inhibition", "setting": "[13]", "value": 103, "unit": "%"}, {"measurement": "Activity", "setting": "HepG2 [14]", "value": 28.1, "unit": "%"}, {"measurement": "Activity", "setting": "HepG2 [15]", "value": 25.3, "unit": "%"}, {"measurement": "Activity", "setting": "HUVEC [16]", "value": 6.9, "unit": "%"}, {"measurement": "inhibition", "setting": "Chorioallantoic membrane [17]", "value": "Dose-dependent effect"}, {"measurement": "IC50", "setting": "A549", "value": 73.8, "unit": "µM"}, {"measurement": "Activity", "setting": "HUVEC [18]", "value": 18.9, "unit": "%"}, {"measurement": "inhibition", "setting": "Chorioallantoic membrane [19]", "value": 28, "unit": "%"}, {"measurement": "Activity", "setting": "HepG2 [20]", "value": 36.2, "unit": "%"}, {"measurement": "Activity", "setting": "HepG2 [21]", "value": "Dose-dependent effect"}, {"measurement": "inhibition", "setting": "[22]", "value": "Active"}, {"measurement": "inhibition", "setting": "Chorioallantoic membrane [23]", "value": 51, "unit": "%"}, {"measurement": "Activity", "setting": "HepG2 [24]", "value": 68, "unit": "%"}, {"measurement": "inhibition", "setting": "[25]", "value": -3.5, "unit": "%"}, {"measurement": "Activity", "setting": "HUVEC [26]", "value": 2.5, "unit": "%"}, {"measurement": "IC50", "setting": "[27]", "value": 0.0514, "unit": "µM"}, {"measurement": "inhibition", "setting": "[28]", "value": 26.1, "unit": "%"}, {"measurement": "inhibition", "setting": "[29]", "value": 18.5, "unit": "%"}, {"measurement": "IC50", "setting": "HUVEC [30]", "value": 1.47, "unit": "µM"}, {"measurement": "inhibition", "setting": "[31]", "value": -3.6, "unit": "%"}, {"measurement": "Activity", "setting": "HUVEC [32]", "value": 71.4, "unit": "%"}, {"measurement": "cytotoxicity at 10 µM", "setting": "[33]", "value": 56.4, "unit": "%"}, {"measurement": "Activity", "setting": "HUVEC [34]", "value": 59.3, "unit": "%"}, {"measurement": "inhibition", "setting": "Chorioallantoic membrane [35]", "value": 79, "unit": "%"}, {"measurement": "inhibition", "setting": "[36]", "value": 2.7, "unit": "%"}, {"measurement": "Activity", "setting": "HepG2 [37]", "value": 8.1, "unit": "%"}, {"measurement": "Activity", "setting": "HepG2 [38]", "value": 7.3, "unit": "%"}]}]}
